These results are taken from patent publication EP1921068A1, “Indazole and indole derivatives as anti-inflammatory agents” (Bayer Schering Pharma Aktiengesellschaft, priority 2006, dated 2008).

The target of test [1] is T1, glucocorticoid receptor (GR) (Homo sapiens, UniProt P04150).
T1 construct: made in house; host or cells: Sf9 insect cells infected with recombinant baculovirus; cytosol preparation
T1 sequence (P04150 1-777): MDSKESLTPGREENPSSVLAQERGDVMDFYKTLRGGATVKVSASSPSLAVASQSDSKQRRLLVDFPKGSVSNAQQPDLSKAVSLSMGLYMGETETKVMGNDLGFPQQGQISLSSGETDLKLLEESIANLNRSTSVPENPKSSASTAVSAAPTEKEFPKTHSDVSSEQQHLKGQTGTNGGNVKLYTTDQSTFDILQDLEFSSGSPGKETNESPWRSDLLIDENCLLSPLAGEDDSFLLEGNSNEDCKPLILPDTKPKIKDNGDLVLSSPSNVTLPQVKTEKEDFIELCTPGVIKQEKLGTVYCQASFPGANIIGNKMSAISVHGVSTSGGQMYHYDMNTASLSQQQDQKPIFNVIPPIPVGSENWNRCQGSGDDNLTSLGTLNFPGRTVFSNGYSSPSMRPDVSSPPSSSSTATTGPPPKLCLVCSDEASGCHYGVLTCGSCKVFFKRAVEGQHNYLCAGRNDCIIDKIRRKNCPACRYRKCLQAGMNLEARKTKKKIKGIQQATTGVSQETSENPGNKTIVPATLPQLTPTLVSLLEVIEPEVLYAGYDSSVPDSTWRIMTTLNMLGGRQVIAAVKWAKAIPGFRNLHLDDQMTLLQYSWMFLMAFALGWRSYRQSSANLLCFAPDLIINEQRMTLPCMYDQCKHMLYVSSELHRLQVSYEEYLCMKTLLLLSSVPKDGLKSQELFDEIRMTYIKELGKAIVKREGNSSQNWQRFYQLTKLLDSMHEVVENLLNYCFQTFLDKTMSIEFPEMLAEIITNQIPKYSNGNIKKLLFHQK
Description: Binding to recombinantly produced glucocorticoid receptor (cytosol preparations of baculovirus-infected Sf9 cells, [3H]-dexamethasone as reference substance). Particulars: recombinant GR. The source says: The binding of the substances to the glucocorticoid receptor (GR) and other steroid hormone receptors (mineral corticoid receptor (MR), progesterone receptor (PR) and androgen receptor (AR)) is examined with the aid of recombinantly produced receptors. Cytosol preparations of Sf9 cells, which had been infected with recombinant baculoviruses, which code for the GR, are used for the binding studies. In comparison to reference substance [^3H]-dexamethasone, the substances show a high to very high affinity to GR. IC50(GR) = 11,5 nM was thus measured for the compound from Example A16.

Test [2] deals with secretion of cytokine IL-8 into the human monocyte cell line THP-1. Description: Inhibition of LPS-triggered IL-8 secretion in THP-1 cells (ELISA of supernatant). The test is classed as cell-based. The method, then: The concentration of the cytokines was determined in the supernatant by means of commercially available ELISA kits.
(In general: An ELISA detects its analyte on a solid surface through an enzyme-linked reagent.)

pIC50: −log10 of the molar value.

Broadly, the pIC50 is the negative decadic logarithm of the IC50, by convention in mol/L. `CC(C)(CC(O)(CNc1cccc2c1cnn2-c1ccc(F)nc1)C(F)(F)F)c1cccc2c1OCO2` (stereo not drawn) [Example A16]: the pIC50 in test [1] is 7.94; in test [2] (read-out: IC50(IL8)), 9.52. The Emax in test [2] (efficacy relative to dexamethasone, read-out: eff. relative to dexamethasone) amounted to 94%.
